2 compounds from US5945450A, “Naphthalene derivative” (Teijin Limited, priority 1994, dated 1999) can be followed below.

In one experiment the test system is human basophils. The experiment is described as follows: Inhibition of histamine release from human basophils. The experiment is classed as cell-based. Also noted: dose or concentration left out as unconfirmed. The method, then: To human heparinized peripheral blood was added 1/10 volume of 6% Dextran 500 in saline, and the mixture was allowed to stand at room temperature for 1 hour, to isolate a plasma layer containing leukocytes. The leukocytes were separated by centrifugation, washed with PIPE-A (119 mM NaCl, 5 mM KCl, 25 mM PIPES, 40 mM NaOH, 5.6 mM glucose, and 0.03% human serum albumin), and suspended in PIPES-ACM (PIPES A, 1 mM CaCl2 and 0.4 mM MgCl2) to give a cell suspension of a density of 4×10^6 cells /ml. To this cell suspension was added the compound of this invention listed in Table 7 as a test drug (0.1 M solution of the compound in DMSO was diluted with PIPES-ACM to give a […]), or the cell suspension was left untouched. After 30 second, calcium ionophore A23187 ([…]) was added. The reaction was allowed to proceed at 37 for 45 minutes. The resulting mixture was centrifuged to isolate a supernatant. Histamine release in the supernatant was determined by the fluorescent method. Inhibitory effect (%) of a given compound of this invention on histamine release was calculated relative to the histamine release when the compound was not coexistent(refer to Allergy, 37:313-321, 1988).

For the next experiment, the system named is IgG1. The experiment is described as follows: In vivo inhibition of IgG1 production in TNP-KLH immunized mice. Also noted: species or system BDF1 mice. As to conditions: 100 mg/kg/day subcutaneously, twice a day for 10 days, N=10. How it is done: (§1) TNP-KLH (trinitrophenyl-keyhole-lymphet-hemocyanin) was prepared by the method as described in J. Immunol., 97:421-430, 1966 from KLH and trinitrobenzene sulfonic acid. A […] of TNP-KLH suspended in 0.2 ml of saline and 1 mg of aluminum hydroxide gel were injected into the peritoneal cavity of BDF1 mice (8 weeks old) for immunization. From the day of immunization onward, the compound of this invention listed in Table 5 was given subcutaneously to the same animal twice a day for 10 days (100 mg/kg/day, dissolved in 0.5% Tween 80 in saline, and N=10). To the control group, 0.5% Tween 80 in saline was given at the same time schedule (N=10). Ten days after immunization, blood was extracted from the heart, and the concentrations of IgE, IgG1 and IgM antibodies were determined by ELISA (Immunol. Lett., 23:251-256, 1990, and Eur. J. Immunol., 20:2499-2503, 1990). Inhibition (%) of the antibody production with respect to the control was calculated.

For experiment [1], the system named is leukotrien B4 (LTB4) production. The experiment is described as follows: Inhibition of leukotrien B4 (LTB4) production in RBL-1 basophils. As to conditions: Rattus norvegicus; RBL-1 cells, calcium ionophore A23187. It counts as cell-based. How it is done: The basophils from rats of RBL-1 line (Dainippon Pharmaceutical Co.) cultured on DMEM (Dulbecco's modified Eagle medium) containing 10% FCS suspended in 10 mM HEPES-NaOH buffer (pH 7.4), 90 mM NaCl, 3.7 mM KCl, 0.9 mM CaCl2, 5.6mM glucose, and the compound of this invention listed in Table 8 as a test drug, to give a suspension of a density of 2×10^6 cells/ml. The suspension was allowed to stand at 37 for 5 minutes, and calcium ionophores A23187 were added thereto in such a manner that the concentration of […] was obtained in the end. The reaction was allowed to proceed at 37 for 10 minutes, and the supernatant was sampled for the ELISA assay (Cayman Chemical, Catalog No. 520111, and J. Immunol., 119:618-622, 1977) of leukotrien B4 (LTB4). IC50 of a given compound of this invention for inhibition of leukotrien production was calculated relative to the production of LTB4 when the compound was not coexistent.

The subject of the next experiment is IgM. The experiment is described as follows: In vivo inhibition of IgM production in TNP-KLH immunized mice. As to conditions: 100 mg/kg/day subcutaneously, twice a day for 10 days, N=10. Also noted: species or system BDF1 mice. How it is done: as §1
The next experiment concerns human IgG antibodies. The experiment is described as follows: In vitro inhibition of human IgG antibody production (lymphocytes + IL-4 + anti CD40Ab + IL-10, ELISA). The experiment is classed as cell-based. As to conditions: Lymphocyte. How it is done: According to the method described in J. Immunol., 146:1836-1842, 1991 and J. Immunol., 147:8-13, 1991, the concentrations of IgE and IgG antibodies were measured by the procedures described below.
Peripheral venous blood was sampled from the healthy person, and submitted to density-gradient centrifugation to isolate lymphocytes. The lymphocytes thus obtained were washed and suspended in a culture medium (RPMI-1640 (provided by Gibco)+10% heat-inactivated FCS (Whittaker)+100 µg/ml streptomycin+100 U/ml penicillin+2mM L-glutamine). The cell suspensions were cultured for 1 week in the presence/absence of the compounds of this invention at the concentrations as described in Tables 3-1 to 3-2 together with human interleukin 4 (IL-4, Genzyme)([…]), anti CD40 antibodies (anti CD40Ab, Biosource, clone B-B20)([…]) and human interleukin 10 (IL-10, Genzyme)([…]). The culture medium was supplied freshly to the cell suspension, and the mixture was further cultured for another week. The supernatant was sampled and the concentrations of IgE and IgG antibodies therein were measured by sandwich ELISA.
The ELISA was based, for the assay of IgE antibodies, on the use of rabbit anti-human IgE() antibodies (ICN) as the primary antibody and biotin-linked anti-human IgE monoclonal antibodies (G7-26, PharMingen) as the secondary antibody. For the assay of IgG antibodies, anti-human IgG monoclonal antibodies (G18-145, PharMingen) and biotin-linked donkey anti-human IgG antibodies (H+L)(Jackson) were used for the primary and secondary antibodies, respectively. For the assay of both IgE and IgG antibodies, Avidin-Biotin-Horse Radish Peroxidase (ABC kit, Vector Lab) and TMB (3,3',5,5'-tetramethylbenzidine) microwell peroxidase substrate system (Kirkegaard & Perry Laboratories Inc.) were used as the enzyme and the substrate, respectively. The assays were made by the use of conventionally known ELISA.
The inhibitory effect (%) of a given compound of this invention on the production of the antibody was calculated with respect to the concentration of the same antibody when the compound was not coexistent (refer to Uejima et al., American Academy of Allergy and Immunology, Proceedings of 1995 Annual Meeting, Program No. 818).
(In general: In an ELISA, binding on a coated surface is turned into a signal by an enzyme label.)

SMILES strings stand for the structures.

As usually defined, the IC50 is the concentration that inhibits the measured activity by half. One may read the inhibition as the drop in the measured response relative to a control, in per cent. As to `O=C(Nc1ccccc1C(=O)O)c1ccc(Oc2ccc3ccccc3c2)cc1` [Compound No. 1104, 2-(4-(2-naphtyloxy)benzamide)benzoic Acid], the “Inhibition of histamine release (%)” value with human basophils was determined as 20.4%. The “Inhibition of antibody production (%) IgG1” value with IgG1 came out at 24.4%. Besides, the IC50 in experiment [1] came to 210 nM. Also, the “Inhibition of antibody production (%) IgM” value in the experiment with IgM was found to be 56.1%. Also, in the experiment with human IgG antibodies, the inhibition at 1 µM is -4.7%, the inhibition at 3 µM was -6.2% and the inhibition at 10 µM was determined as 20.5%.
Take `O=C(Cc1ccc(Oc2ccc3ccccc3c2)cc1)Nc1ccccc1C(=O)O` [Compound No. 1126, 2-(4-(2-naphtyloxy)phenylacetamide)benzoic acid]: the “Inhibition of histamine release (%)” value in the experiment with human basophils stood at 55.8%. Also, the “Inhibition of antibody production (%) IgG1” value with IgG1 amounted to 46.8%. Further, in experiment [1], the IC50 was 600 nM. In the experiment with IgM, the “Inhibition of antibody production (%) IgM” value turned out to be 70.2%. Moreover, in the experiment on human IgG antibodies, the inhibition at 1 µM is -5%, the inhibition at 3 µM came to 35.4% and the inhibition at 10 µM amounted to 84%.
